Measured values published in article PMC8161026, “Synthesis and Anticancer Activity Evaluation of 5-[2-Chloro-3-(4-nitrophenyl)-2-propenylidene]-4-thiazolidinones” (Molecules, 2021).

Columns and labels:
SW-620 = SW-620 (Colon Cancer), 48 h, SRB
MOLT-4 = experiment: cells; details: Homo sapiens, MOLT-4, 48 h; for CC50: read-out: LC50
SK-OV-3 = experiment: NCI DTP 60 cell line screen, SRB; details: for GI50 / CC50: Homo sapiens, SK-OV-3, 48 h; for CC50: read-out: LC50; for TGI: SK-OV-3 (Ovarian Cancer), 48 h, SRB
NCI-H460 [1] = details: NCI-H460 (Non-Small Cell Lung Cancer), 48 h, SRB
NCI-H23 [2] = details: NCI-H23 (Non-Small Cell Lung Cancer), 48 h, SRB
SK-MEL-28 = experiment: cells; details: Homo sapiens, SK-MEL-28, 48 h; for CC50: read-out: LC50
MALME-3M = experiment: NCI DTP 60 cell line screen, SRB; details: 48 h; for GI50 / CC50: Homo sapiens, Malme-3M; for CC50: read-out: LC50; for TGI: MALME-3M (Melanoma), SRB
SK-MEL-5 = experiment: NCI DTP 60 cell line screen, SRB; details: for GI50 / CC50: Homo sapiens, SK-MEL-5, 48 h; for CC50: read-out: LC50; for TGI: SK-MEL-5 (Melanoma), 48 h, SRB
NCI-H23 [3] = experiment: cells; details: Homo sapiens, NCI-H23, 48 h; for CC50: read-out: LC50
[4] = Lymphocyte viability, MTT assay; details: human
Experimental: (§1) Another part of our study was to determine the influence of compounds 2f, 2i, 2j, and 2h on normal human blood lymphocytes (Figure 5). […] Thus, normal blood lymphocytes are blood cells, as well as cells of leukemia cell lines, therapeutic index (TI) of compounds 2f, 2h, and 2j was calculated as GI50 (normal blood lymphocyte)/GI50 (leukemia cell line) (Table 5).
(§2) Figure 5 Human lymphocyte viability after 48 h of 2f, 2i, 2j, 2h, and Ciminalum drug exposure was estimated by MTT assay.
(§3) The assay was performed by using 3-(4,5-dimethylthiazole-2-yl)- 2,5-diphenyltetrazolium bromide (MTT). Confluent cells, cultured for 24 h with 0.1, 1, 5, 10, 20, 30, and 100 µM concentrations of studied compounds in 24-well plates were washed with PBS. MTT was dissolved in PBS, and 25 µL were added to each well. Plates were incubated for 4 h at 37 °C in 5% CO2 in an incubator. The medium with MTT was removed, and 1 mL of DMSO was added to the attached cells. Furthermore, cells were incubated for 5–10 min in RT and then 10 µl of Sorensen buffer was added to each well. The absorbance of converted dye in living cells was measured at a wavelength of 570 nm. The cell viability of breast cancer cells, gastric cancer cells, and human colon cancer cells cultured in the presence of ligands was calculated as percent of control cells.
(§4) First, 20 mL of venous blood was taken from volunteers (Ethical protocol number 2, 27 January 2019) and collected in the presence of 200 μL of undiluted fresh heparin (1/100). Sterile blood was diluted 2 times with 0.9% NaCl under the sterile conditions. Isolation of lymphocytes was performed in a density gradient of ficol-verografin using the protocol of the manufacturer (Lympoprep, NYCOMED PHARMA AS, Oslo Norway). The resulting lymphocytes were resuspended in the RPMI-1640 medium and cultured for several days (up to 10 days). To separate the lymphocytes from the monocytes, cell suspension was left for 24 h. After 24 h of culture, monocytes were attached, while lymphocytes were transferred to a fresh Falcon tube (15 mL). To stimulate the proliferation of lymphocytes, they were cultured on CD3+ antibody-coated plastic plate in the RPMI-1640 medium supplemented with 20% FBS.

[5] = test system: normal human blood lymphocytes; experiment: in vitro
Experimental: as §1, §2, §3, §4

HOP-62 = HOP-62 (Non-Small Cell Lung Cancer), 48 h, SRB
SNB-75 = SNB-75 (CNS Cancer), 48 h, SRB
T-47D = experiment: cells; details: Homo sapiens, T47D, 48 h; for CC50: read-out: LC50
HL-60(TB) = experiment: cells; details: Homo sapiens, HL-60, 48 h; for CC50: read-out: LC50
SN12C = SN12C (Renal Cancer), 48 h, SRB
OVCAR-3 = experiment: NCI DTP 60 cell line screen, SRB; details: for GI50 / CC50: Homo sapiens, OVCAR-3, 48 h; for CC50: read-out: LC50; for TGI: OVCAR-3 (Ovarian Cancer), 48 h, SRB
NCI-H460 [6] = experiment: cells; details: Homo sapiens, NCI-H460, 48 h; for CC50: read-out: LC50
LOX IMVI = LOX IMVI (Melanoma), 48 h, SRB
SR = details: for TGI: SR (Leukemia), 48 h, SRB
A549/ATCC = experiment: cells; details: Homo sapiens, A549, 48 h; for CC50: read-out: LC50
DU-145 = DU-145 (Prostate Cancer), 48 h, SRB
SF-268 = experiment: NCI DTP 60 cell line screen, SRB; details: for GI50 / CC50: Homo sapiens, SF-268, 48 h; for CC50: read-out: LC50; for TGI: SF-268 (CNS Cancer), 48 h, SRB

O=C(O)CCN1C(=O)/C(=C/C(Cl)=C/c2ccc([N+](=O)[O-])cc2)SC1=S [Compound 2h, 3-{5-[(Z,2Z)-2-Chloro-3-(4-nitrophenyl)-2-propenylidene]-4-oxo-2-thioxothiazolidin-3-yl}propanoic acid]
TGI (SW-620): 3.25 µM
GI50 (MOLT-4): 0.016 µM
CC50 (MOLT-4): > 100 µM
GI50 (SK-OV-3): 6.83 µM
CC50 (SK-OV-3): 77.6 µM
TGI (SK-OV-3): 27.4 µM
TGI (NCI-H460 [1]): 3.32 µM
TGI (NCI-H23 [2]): 3.22 µM
GI50 (SK-MEL-28): 3.59 µM
CC50 (SK-MEL-28): 89.5 µM
GI50 (MALME-3M): 9.7 µM
CC50 (MALME-3M): > 100 µM
TGI (MALME-3M): 61.9 µM
GI50 (SK-MEL-5): 0.0193 µM
CC50 (SK-MEL-5): 1.88 µM
TGI (SK-MEL-5): 0.0849 µM
GI50 (NCI-H23 [3]): 1.44 µM
CC50 (NCI-H23 [3]): 7.19 µM
GI50 at 48 h [4]: 54.5 µM
toxicity toward normal human blood lymphocytes [5]: low toxicity
TGI (HOP-62): 19.9 µM
TGI (SNB-75): 46.0 µM
GI50 (T-47D): 0.363 µM
CC50 (T-47D): > 100 µM
GI50 (HL-60(TB)): 0.347 µM
CC50 (HL-60(TB)): > 100 µM
TGI (SN12C): 2.99 µM
GI50 (OVCAR-3): 0.135 µM
CC50 (OVCAR-3): 66.6 µM
TGI (OVCAR-3): 6.05 µM
GI50 (NCI-H460 [6]): 0.804 µM
CC50 (NCI-H460 [6]): > 100 µM
TGI (LOX IMVI): 0.515 µM
TGI (SR): 1.41 µM
GI50 (A549/ATCC): 1.76 µM
CC50 (A549/ATCC): > 100 µM
TGI (DU-145): 3.48 µM
GI50 (SF-268): 2.12 µM
CC50 (SF-268): > 100 µM
TGI (SF-268): 9.74 µM

O=C1/C(=C/C(Cl)=C/c2ccc([N+](=O)[O-])cc2)SC(=S)N1c1ccc(O)cc1 [Compound 2f, 5-[(Z,2Z)-2-Chloro-3-(4-nitrophenyl)-2-propenylidene]-3-(4-hydroxyphenyl)-2-thioxo-4-thiazolidinone]
TGI (SW-620): 1.52 µM
GI50 (MOLT-4): 0.389 µM
CC50 (MOLT-4): > 100 µM
GI50 (SK-OV-3): 10.2 µM
CC50 (SK-OV-3): > 100 µM
TGI (SK-OV-3): 41.5 µM
TGI (NCI-H460 [1]): > 100 µM
TGI (NCI-H23 [2]): 3.11 µM
GI50 (SK-MEL-28): 4.49 µM
CC50 (SK-MEL-28): > 100 µM
GI50 (MALME-3M): 6.53 µM
CC50 (MALME-3M): 94.5 µM
TGI (MALME-3M): 27.6 µM
GI50 (SK-MEL-5): < 0.01 µM
CC50 (SK-MEL-5): 3.41 µM
TGI (SK-MEL-5): < 0.01 µM
GI50 (NCI-H23 [3]): 1.48 µM
CC50 (NCI-H23 [3]): 6.52 µM
GI50 at 48 h [4]: > 100 µM
toxicity toward normal human blood lymphocytes [5]: low toxicity
TGI (HOP-62): 5.22 µM
TGI (SNB-75): > 100 µM
GI50 (T-47D): 1.55 µM
CC50 (T-47D): > 100 µM
GI50 (HL-60(TB)): 0.485 µM
CC50 (HL-60(TB)): > 100 µM
TGI (SN12C): 4.41 µM
GI50 (OVCAR-3): 0.977 µM
CC50 (OVCAR-3): > 100 µM
TGI (OVCAR-3): 41.8 µM
GI50 (NCI-H460 [6]): 0.754 µM
CC50 (NCI-H460 [6]): > 100 µM
TGI (LOX IMVI): 3.70 µM
TI (Therapeutic Index) (SR; GI50 (normal blood lymphocyte)/GI50 (SR)): >10,000
TGI (SR): 0.138 µM
GI50 (A549/ATCC): 2.25 µM
CC50 (A549/ATCC): > 100 µM
TGI (DU-145): 5.81 µM
GI50 (SF-268): 2.55 µM
CC50 (SF-268): > 100 µM
TGI (SF-268): 34.5 µM
